Experimental data published in patent US20220323471A1 (priority 2019, published 2022).
“Also recorded” adds a separate entry of the source. Like-named read-outs stand apart in the source and are kept apart here.

How the values were obtained:
[1] = test system: HT1080, CHME3, VERO cells; experiment: MTT cell viability assay; format: cell-based, human and monkey; details: human or monkey cells (HT1080, CHME3, VERO); 48 hours
Method: Cell viability was determined by measuring the reduction of the tetrazolium dye MTT [3-(4,5-dimethylthiazol-2-yl)-2,5-diphenyltetrazolium bromide] to its insoluble form formazan. We treated 4×10^3 cells/well in a 96-well plate with serial dilutions of the indicated drugs. Human and monkey cells were incubated with DGP, diphyllin, or 6-deoxy-D-glucose for 48 hours at 37° C. After the incubation period, 10 μl MTT solution (5 mg/mL) was added to each well for an additional 4 hours at 37° C. Finally, the media was removed and dimethyl sulfoxide was added (200 μl/well) according to the manufacturer's instructions. The optical density was measured at 570 nm using a microplate reader. Experiments were performed in triplicates and standard deviations are shown. Mock-treated cells represent 100% viability.

ZIKV MR766 = experiment: qRT-PCR quantification of ZIKV RNA in cells; format: cell-based, Zika virus; details: VERO and HT1080 cells; MOI 1; 48 hours; increasing concentrations
Method: To corroborate these findings, quantitative real-time PCR (qRT-PCR) was used to quantify viral RNA using specific primers for the ZIKV genome (FIG. 3A). VERO and HT1080 cells were challenged with ZIKV at an MOI of 1 in the presence of DGP at the indicated concentrations. At 48 hours post-infection, ZIKV RNA was quantified by qRT-PCR, and normalized to Actin. […] Inhibition of viral RNA production correlated with the inhibition of viral infection (compare FIG. 3A with FIG. 3B).
To detect viral copies of ZIKV and Sendai Virus (SeV) by qRT-PCR, cells were seeded in 24-well plates, with or without DGP treatment, and infected with the virus at the indicated MOI for 48 h. After the incubation period, total RNA from HT1080, VERO, and CHME3 cells was isolated and purified using Trizol (Invitrogen). For detection of ZIKV viral load in brain and spleen, 3 mice were sacrificed at 6 days post-infection and total RNA was extracted from the brain and spleen. For cDNA synthesis, 1 ng of total RNA was reverse transcribed. The reaction mixture included 1 mM of deoxyribonucleotide phosphates (dNTPs), 2 nM of the specific reverse primer of ZIKV or SeV, 1× M-MULV buffer, 10 U M-MuLV RT (BioLabs), and 2 U of RNase Inhibitor. The reaction mixture was incubated for 1 hour at 42° C. followed by 20 min at 65° C. to inactivate the enzyme. […]
ZIKV RNA levels were measured using real-time PCR. […]

JEV-RVP = format: cell-based, Japanese encephalitis virus; details: VERO cells; DGP 1 μM; NH4Cl 20 mM
EBV RVP = format: cell-based, Ebola virus
ZIKV strain MR766 [2] = experiment: ZIKV strain MR766 infection, 4G2 antibody flow cytometry; details: for IC50: Zika virus
[3] = test system: type I IFN response (IFN-β); experiment: Type I IFN response (IFN-β induction, qRT-PCR) in ZIKV-challenged CHME3 cells; format: cell-based, human; details: ZIKV MR766 MOI 1, 0.1 μM and 1 μM, 48 hours
From the text: ZIKV infection activates the type I IFN response via IFN-stimulated genes that are activated by the host after recognition of viral components. If ZIKV is inhibited at a pre-fusion step, viral nucleic acids and proteins will not be exposed to the host cytosol; thus the type I IFN response will not be activated. To test whether DGP treatment prevents activation of the type I IFN response, CHME3 cells we challenged using ZIKV MR766 at an MOI of 1 in the presence of different DGP concentrations. At 48 hours post-challenge, the type I IFN response was assessed using qRT-PCR to measure IFN-β induction (FIG. 5).
ZIKV RNA levels were measured using real-time PCR. HT1080 and VERO cells were challenged by ZIKV MR766 at an MOI of 1 in the presence of DGP. At 48 hours post-challenge, cells were lysed and total RNA was extracted using trizol. Total RNA was used to determine the levels of ZIKV RNA by real-time PCR using specific primers against ZIKA. qRT-PCR was carried out using SYBR green in a 20-μl final volume using a MASTERCYCLER proS machine. The primers used to detect ZIKV were: SEQ ID NO. 1: 5′-TT […]-3′-Forward (Genome Position 941-964) and SEQ ID NO. 2: 5′-[…]-3′-Reverse (Genome position 1123-1103) (AY632535.2). For the detection of SeV, the following primers were used: SEQ ID NO. 3: 5′-[…]-3′-Forward (Genome position 210-233) and SEQ ID NO. […]

ZIKV strain MR766 [4] = experiment: ZIKV-induced mortality in Ifnar1−/− mice; format: in vivo, mouse (C57BL/6 Ifnar1−/−)
SARS-CoV-2-GFP = format: cell-based
ZIKV-RVP = format: cell-based, Zika virus; details: VERO, HT1080, CHME3 cells; MOI 0.5; 48 hours
DENV1-RVP = format: cell-based, dengue virus; details: VERO cells; DGP 1 μM; NH4Cl 20 mM

## COc1cc2c(OC3OC(C)C(O)C(O)C3O)c3c(c(-c4ccc5c(c4)OCO5)c2cc1OC)C(=O)OC3 (stereo not shown) [DGP, 6-deoxyglucose-diphyllin]
[1]
  toxicity at concentrations required to inhibit ZIKV infection (MTT): non-toxic; also recorded: not toxic
ZIKV MR766
  synthesis of viral RNA (normalized to Actin): completely inhibited
JEV-RVP
  JEV RVP infection: almost undetectable
EBV RVP
  EBV RVP infection: almost undetectable
ZIKV strain MR766 [2]; CHME3 cells, MOI 1, DGP 0.1 and 1 μM, NH4Cl 20 mM, 48 hours
  percentage of 4G2-positive cells: substantial decrease
ZIKV strain MR766 [2]; HT1080 and CHME3 cells
  potency of DGP relative to diphyllin: 3-5 fold
ZIKV strain MR766 [2]; VERO, HT1080, CHME3 cells, MOI 1, 48 hours
  concentration giving substantial inhibition of ZIKV infection: 0.25 to 0.50 µM
ZIKV strain MR766 [2]; HT-1080, read-out: IC50, ZIKV infection
  IC50: 20 nM
ZIKV strain MR766 [2]; read-out: IC50, ZIKV infection
  IC50: 40 nM
[3]
  activation of the type I IFN response (IFN-β induction): substantially decreased and/or prevented
ZIKV strain MR766 [4]; 0.1 mg/kg and 0.2 mg/kg dose (FIG. 8A)
  percent survival: improved
ZIKV strain MR766 [4]; 0.2 mg/kg and 1 mg/kg (FIGS. 8B and 8D)
  body weight of surviving mice: able to regain lost body weight
ZIKV strain MR766 [4]; 1 mg/kg (FIG. 8C)
  survival: 100%
ZIKV strain MR766 [4]; ZIKV + 0.1 mg/kg, footpad co-injection
  time at which group succumbed to viral infection: 10 days post-challenge
ZIKV strain MR766 [4]; ZIKV + 0.2 mg/kg, compared with ZIKV group
  appearance of symptoms: delay in the appearance of symptoms
ZIKV strain MR766 [4]; ZIKV + 0.2 mg/kg, footpad co-injection
  survival: some mice survived until day 14
ZIKV strain MR766 [4]; ZIKV + 1 mg/kg
  disease symptoms: did not show any obvious disease symptoms
ZIKV strain MR766 [4]; ZIKV + 1 mg/kg compared to PBS + 1 mg/kg of DGP
  body weight: lower body weights
ZIKV strain MR766 [4]; ZIKV + 1 mg/kg, 15 post-challenge days, 6 mice/group
  mice surviving for the length of the experiment: all six mice
SARS-CoV-2-GFP
  concentration sufficient to potently block the entry of SARS-CoV-2-GFP: 0.25 µM
ZIKV-RVP
  concentration at which ZIKV-RVP infection was substantially inhibited: 0.25 to 0.50 µM
DENV1-RVP
  DENV1 RVP infection: almost undetectable
